# According to US12077503B2, “Substituted cyclic amides and their use as herbicides” (FMC CORPORATION, priority 2015, dated 2024):
# What was measured:
# [1] = test system: Galium (catchweed bedstraw, Galium aparine); assay: Test C preemergence; assay type: in vivo; conditions: for Plant response rating, Galium: scale 0 to 100, 0 no effect, 100 complete control
# How it was run: (§1)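 Greenhouse test: seeds in a loam and sand blend treated preemergence, or seedlings at the 1- to 4-leaf stage (2 to 18 cm) in a peat, vermiculite and limestone mix treated postemergence, with test chemicals in a surfactant-containing non-phytotoxic solvent. Scored by eye at 13 to 15 d relative to controls, 0 (no effect) to 100 (complete control).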
# [2] = test system: barnyardgrass (Echinochloa crus-galli); assay: Test C preemergence; assay type: in vivo; conditions: for Plant response rating, Barnyardgrass: scale 0 to 100, 0 no effect, 100 complete control
# How it was run: as §1
# [3] = test system: blackgrass (Alopecurus myosuroides); assay: Test C preemergence; assay type: in vivo; conditions: for Plant response rating, Blackgrass: scale 0 to 100, 0 no effect, 100 complete control
# How it was run: as §1
# corn (Zea mays) = assay: Test C preemergence; assay type: in vivo; conditions: for Plant response rating, Corn: scale 0 to 100, 0 no effect, 100 complete control
# How it was run: as §1
# [4] = test system: crabgrass, large (large crabgrass, Digitaria sanguinalis); assay: Test C preemergence; assay type: in vivo; conditions: for Plant response rating, Crabgrass, Large: scale 0 to 100, 0 no effect, 100 complete control
# How it was run: as §1
# [5] = test system: foxtail, giant (giant foxtail, Setaria faberii); assay: Test C preemergence; assay type: in vivo; conditions: for Plant response rating, Foxtail, Giant: scale 0 to 100, 0 no effect, 100 complete control
# How it was run: as §1
# [6] = test system: johnsongrass (Sorghum halepense); assay: Test C preemergence; assay type: in vivo; conditions: for Plant response rating, Johnsongrass: scale 0 to 100, 0 no effect, 100 complete control
# How it was run: as §1
# [7] = test system: morningglory (Ipomoea coccinea); assay: Test C preemergence; assay type: in vivo; conditions: for Plant response rating, Morningglory: scale 0 to 100, 0 no effect, 100 complete control
# How it was run: as §1
# [8] = test system: nutsedge, yellow (yellow nutsedge, Cyperus esculentus); assay: Test C preemergence; assay type: in vivo; conditions: for Plant response rating, Nutsedge, Yellow: scale 0 to 100, 0 no effect, 100 complete control
# How it was run: as §1
# [9] = test system: oilseed rape (Brassica napus); assay: Test C preemergence; assay type: in vivo; conditions: for Plant response rating, Oilseed Rape: scale 0 to 100, 0 no effect, 100 complete control
# How it was run: as §1
# [10] = test system: pigweed (Amaranthus retroflexus); assay: Test C preemergence; assay type: in vivo; conditions: for Plant response rating, Pigweed: scale 0 to 100, 0 no effect, 100 complete control
# How it was run: as §1
# [11] = test system: ragweed (common ragweed, Ambrosia elatior); assay: Test C preemergence; assay type: in vivo; conditions: for Plant response rating, Ragweed: scale 0 to 100, 0 no effect, 100 complete control
# How it was run: as §1
# [12] = test system: ryegrass, Italian (Italian ryegrass, Lolium multiflorum); assay: Test C preemergence; assay type: in vivo; conditions: for Plant response rating, Ryegrass, Italian: scale 0 to 100, 0 no effect, 100 complete control
# How it was run: as §1
# soybean (Glycine max) = assay: Test C preemergence; assay type: in vivo; conditions: for Plant response rating, Soybean: scale 0 to 100, 0 no effect, 100 complete control
# How it was run: as §1
# [13] = test system: velvetleaf (Abutilon theophrasti); assay: Test C preemergence; assay type: in vivo; conditions: for Plant response rating, Velvetleaf: scale 0 to 100, 0 no effect, 100 complete control
# How it was run: as §1
# [14] = test system: waterhemp (common waterhemp, Amaranthus rudis); assay: Test C preemergence; assay type: in vivo; conditions: for Plant response rating, Waterhemp: scale 0 to 100, 0 no effect, 100 complete control
# How it was run: as §1
# [15] = test system: wheat (winter wheat, Triticum aestivum); assay: Test C preemergence; assay type: in vivo; conditions: for Plant response rating, Wheat: scale 0 to 100, 0 no effect, 100 complete control
# How it was run: as §1
# [16] = test system: barnyardgrass (Echinochloa crus-galli); assay: Test C flooded paddy test; assay type: in vivo; conditions: Flood; for Plant response rating (scale of 0 to 100), Barnyardgrass: 0 is no effect, 100 is complete control
# How it was run: (§2)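 Compound was added directly to paddy water held 3 cm above the soil, with plants at the 2-leaf stage. Injury was scored visually versus untreated controls after 13–15 d greenhouse growth, using a 0–100 scale where 100 means complete control.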
# rice (Oryza sativa) = assay: Test C flooded paddy test; assay type: in vivo; conditions: Flood; for Plant response rating (scale of 0 to 100), Rice: 0 is no effect, 100 is complete control
# How it was run: as §2
# [17] = 31 g ai/ha, 0 is no effect, 100 is complete control
# [18] = 31 g ai/ha, scale 0 to 100 (0 no effect, 100 complete control), 13 to 15 d
smiles,measurement,setting,value
O=C1NCC(c2cccc(OC(F)(F)C(F)F)c2)C1C(=O)Nc1ccccc1F (racemic) [Compound 695],"Plant response rating (scale of 0 to 100), Galium",[1]; [17],50
same,"Plant response rating, Galium",[1]; 62 g ai/ha,80
same,"Plant response rating, Galium",[1]; 125 g ai/ha,85
same,"Plant response rating, Galium",[1]; 250 g ai/ha,90
same,"Plant response rating (scale of 0 to 100), Barnyardgrass",[2]; [17],90
same,"Plant response rating, Barnyardgrass",[2]; 62 g ai/ha,90
same,"Plant response rating, Barnyardgrass",[2]; 125 g ai/ha,90
same,"Plant response rating, Barnyardgrass",[2]; 250 g ai/ha,90
same,"Plant response rating (scale of 0 to 100), Blackgrass",[3]; [17],0
same,"Plant response rating, Blackgrass",[3]; 62 g ai/ha,20
same,"Plant response rating, Blackgrass",[3]; 125 g ai/ha,90
same,"Plant response rating, Blackgrass",[3]; 250 g ai/ha,90
same,"Plant response rating (scale of 0 to 100), Corn",corn (Zea mays); [17],0
same,"Plant response rating, Corn",corn (Zea mays); 62 g ai/ha,25
same,"Plant response rating, Corn",corn (Zea mays); 125 g ai/ha,70
same,"Plant response rating, Corn",corn (Zea mays); 250 g ai/ha,80
same,"Plant response rating (scale of 0 to 100), Crabgrass, Large",[4]; [17],90
same,"Plant response rating, Crabgrass, Large",[4]; 62 g ai/ha,90
same,"Plant response rating, Crabgrass, Large",[4]; 125 g ai/ha,95
same,"Plant response rating, Crabgrass, Large",[4]; 250 g ai/ha,95
same,"Plant response rating (scale of 0 to 100), Foxtail, Giant",[5]; [17],80
same,"Plant response rating, Foxtail, Giant",[5]; 62 g ai/ha,85
same,"Plant response rating, Foxtail, Giant",[5]; 125 g ai/ha,90
same,"Plant response rating, Foxtail, Giant",[5]; 250 g ai/ha,90
same,"Plant response rating (scale of 0 to 100), Johnsongrass",[6]; [17],40
same,"Plant response rating, Johnsongrass",[6]; 62 g ai/ha,80
same,"Plant response rating, Johnsongrass",[6]; 125 g ai/ha,80
same,"Plant response rating, Johnsongrass",[6]; 250 g ai/ha,85
same,"Plant response rating (scale of 0 to 100), Morningglory",[7]; [17],0
same,"Plant response rating, Morningglory",[7]; 62 g ai/ha,0
same,"Plant response rating, Morningglory",[7]; 125 g ai/ha,5
same,"Plant response rating, Morningglory",[7]; 250 g ai/ha,10
same,"Plant response rating (scale of 0 to 100), Nutsedge, Yellow",[8]; [17],0
same,"Plant response rating, Nutsedge, Yellow",[8]; 62 g ai/ha,0
same,"Plant response rating, Nutsedge, Yellow",[8]; 125 g ai/ha,0
same,"Plant response rating, Nutsedge, Yellow",[8]; 250 g ai/ha,0
same,"Plant response rating (scale of 0 to 100), Oilseed Rape",[9]; [17],0
same,"Plant response rating, Oilseed Rape",[9]; 62 g ai/ha,40
same,"Plant response rating, Oilseed Rape",[9]; 125 g ai/ha,85
same,"Plant response rating, Oilseed Rape",[9]; 250 g ai/ha,80
same,"Plant response rating (scale of 0 to 100), Pigweed",[10]; [17],50
same,"Plant response rating, Pigweed",[10]; 62 g ai/ha,60
same,"Plant response rating, Pigweed",[10]; 125 g ai/ha,65
same,"Plant response rating, Pigweed",[10]; 250 g ai/ha,70
same,"Plant response rating (scale of 0 to 100), Ragweed",[11]; [17],35
same,"Plant response rating, Ragweed",[11]; 62 g ai/ha,70
same,"Plant response rating, Ragweed",[11]; 125 g ai/ha,75
same,"Plant response rating, Ragweed",[11]; 250 g ai/ha,80
same,"Plant response rating (scale of 0 to 100), Ryegrass, Italian",[12]; [17],0
same,"Plant response rating, Ryegrass, Italian",[12]; 62 g ai/ha,60
same,"Plant response rating, Ryegrass, Italian",[12]; 125 g ai/ha,30
same,"Plant response rating, Ryegrass, Italian",[12]; 250 g ai/ha,30
same,"Plant response rating (scale of 0 to 100), Soybean",soybean (Glycine max); [17],0
same,"Plant response rating, Soybean",soybean (Glycine max); 62 g ai/ha,0
same,"Plant response rating, Soybean",soybean (Glycine max); 125 g ai/ha,0
same,"Plant response rating, Soybean",soybean (Glycine max); 250 g ai/ha,0
same,"Plant response rating (scale of 0 to 100), Velvetleaf",[13]; [17],0
same,"Plant response rating, Velvetleaf",[13]; 62 g ai/ha,10
same,"Plant response rating, Velvetleaf",[13]; 125 g ai/ha,30
same,"Plant response rating, Velvetleaf",[13]; 250 g ai/ha,55
same,"Plant response rating (scale of 0 to 100), Waterhemp",[14]; [17],55
same,"Plant response rating, Waterhemp",[14]; 62 g ai/ha,75
same,"Plant response rating, Waterhemp",[14]; 125 g ai/ha,70
same,"Plant response rating, Waterhemp",[14]; 250 g ai/ha,85
same,"Plant response rating (scale of 0 to 100), Wheat",[15]; [17],40
same,"Plant response rating, Wheat",[15]; 62 g ai/ha,5
same,"Plant response rating, Wheat",[15]; 125 g ai/ha,35
same,"Plant response rating, Wheat",[15]; 250 g ai/ha,60
same,"Plant response rating, Barnyardgrass",[16]; [18],20
same,"Plant response rating (scale of 0 to 100), Barnyardgrass",[16]; 62 g ai/ha,60
same,"Plant response rating (scale of 0 to 100), Barnyardgrass",[16]; 125 g ai/ha,65
same,"Plant response rating (scale of 0 to 100), Barnyardgrass",[16]; 250 g ai/ha,70
same,"Plant response rating, Rice",rice (Oryza sativa); [18],0
same,"Plant response rating (scale of 0 to 100), Rice",rice (Oryza sativa); 62 g ai/ha,0
same,"Plant response rating (scale of 0 to 100), Rice",rice (Oryza sativa); 125 g ai/ha,15
same,"Plant response rating (scale of 0 to 100), Rice",rice (Oryza sativa); 250 g ai/ha,15
COc1cccc([C@H]2CNC(=O)[C@@H]2C(=O)Nc2cccc(F)c2F)c1F [Compound 1061],melting point,,161 to 165 °C
O=C1NC[C@H](c2ccc(C(F)(F)F)cn2)[C@H]1C(=O)Nc1ccc(F)c(F)c1F [Compound 1105],melting point,,173 to 176 °C
